Earlier results, collected in patent publication US11793177B2, “Animal model of Angelman Syndrome” (UNIVERSITY OF SOUTH FLORIDA, priority 2016, dated 2023).

Tested on: GR
Settings: treatment in adulthood; rodent

CC(/C=C/C(=O)NO)=C\[C@@H](C)C(=O)c1ccc(N(C)C)cc1 [TSA]
GR levels in the hippocampus: increased
repressive histone and methylation marks in the hippocampus: reversed
